{"source": "patent US20080152644A1", "about": "“Genes Involved in Neurodegenerative Conditions” (priority 2005, published 2008)", "type_in_all_cases": "in vivo, Drosophila", "key": {"A-beta42": {"system": "A-beta42", "assay": "Sandwich ELISA of A-beta42 extracted from heads of transgenic flies fed RAD001", "conditions": "FIG. 8", "description": "Antibodies: Mouse monoclonal antibody directed to the NH2 terminus of the A-beta peptide was used as the capture antibody (Biosource Cat#44-352-100). The antibody was diluted in 1×PBS 1:2900 (3.5 μl/10 ml) and applied to Maxisorb Plates (Nunc Cat#442404) and 100 ul/96 well or 50 μl/384 well by incubating overnight at 4C. Polyclonal detection antibodies were obtained from Biosource (anti-hA-beta40 Cat#44-348 and anti-hA-beta42 Cat#44-344) and diluted 1/2000 in 1% BSA/PBS […]. The tertiary antibody (Santa Cruz Cat# SC2313) was a horseradish peroxidase labeled anti-rabbit IgG (Diluted 1/5000 in 1% BSA/PBS).\nPreparation of the A-beta standards: 2.31 g of sodium bicarbonate was dissolved in 500 mL of distilled water and the pH was adjusted to 9.0 with 2N sodium hydroxide. […]\nIndirect Two Sandwich ELISA: After the overnight incubation with capture antibody the plates were washed twice on a microplate washer (Bioteck Instruments, Inc) in 1×PBS/0.05% Tween 20/1 mM EDTA). […] The plates were read on a microplate reader at […] (Molecular Devices, Inc.) within one hour.\nThe amount of A-beta42 from the heads of aged flies expressing A-beta42 was measured to see whether inactivation or reduced activation of Tor function affects the amount of A-beta42, such that it would correlate with the amelioration of A-beta42 induced toxicity. […]"}, "[1]": {"system": "transgenic flies expressing A-beta42", "assay": "Lifespan of transgenic flies expressing A-beta42 fed RAD001", "conditions": "fed every three days with 10, 20, 30 and 60 uM RAD001; effect seen even at the lowest concentration; FIG. 7", "description": "Flies were maintained in corn meal based standard fly food (Ashburner, 1989). Parental crosses were set up at 25° C. and F1 progeny was collected and raised at 29° C. (FIG. 1). Flies are crossed and maintained at 25° C. according to conventional methods except that all progeny are kept at 29° C. for maximal expression of phenotypes. In the binary Gal4 expression system, this temperature maximizes activity of the Gal4 protein. In the case of ElavGal4C^155/UAS-A-beta42, it is observed that the phenotype is stronger at 29° C., so these flies are kept at this temperature as well.\nFor 2nd and 3rd chromosome P-element strains, crosses were set using male flies (about 10) from the P-element strain and virgin females (about 10) from the A-beta42 over-expressing strain (ElavGal4C^155/UAS-A-beta42). For X-chromosome P strains, about 10 virgin females were collected from individual P strains and mated with 10 males from the A-beta over-expressing strain. […] 10 vials with 20 progeny from each cross were kept at 29° C. and scored for viability and behavior phenotypes as well as for general morphological changes. For scoring, live flies were transferred to fresh vials and the dead flies were counted every 2-3 days. […]\nIf successful, this treatment would provide the same beneficiary effect on A-beta42 induced toxicity found through genetic modification. […] Lifespan was scored until all the RAD001 fed flies died. […]"}, "[2]": {"system": "transgenic flies expressing A-beta42", "assay": "Climbing assay (locomotor activity) of RAD001 fed flies expressing A-beta42", "conditions": "RAD001 fed flies at 21 day, compared to placebo fed flies; data not shown", "source_text": "For the locomotion assay, 20 flies of each experimental genotype were scored at 3, 10 and 15 days of age. Flies were transferred to fresh vials, tapped down and recorded for a few minutes until their climbing came to an equilibrium.\nIn order to analyze locomotion activity, we used a “climbing assay” (Le Bourg E, Lints F A. (1992). Hypergravity and aging in Drosophila melanogaster. 4. Climbing activity. Gerontology. 38:59-64), which measures the negative geotropic response that flies naturally display. Groups of flies at different stages of adult life (3, 10, 15 days) from experimental and control groups were assayed. […] Three different UAS-A-beta42 strains were used, expressing different amounts of A-beta42 peptide (A-beta42^H29.3, A-beta42^HJ2.12, A-beta42^HJ2.19). Strains A-beta42^HJ2.12 and A-beta42^HJ2.19 express higher levels of the peptide than strain A-beta42^H29.3.\nIf successful, this treatment would provide the same beneficiary effect on A-beta42 induced toxicity found through genetic modification. Flies expressing A-beta42 were fed every three days with 10 uM, 20 uM, 30 uM and 60 uM (where uM=10^−6 M) concentration of RAD001. Lifespan was scored until all the RAD001 fed flies died. The climbing assay was performed on RAD001 fed flies at 21 day, and compared to placebo fed flies."}}}
{"smiles": "CO[C@H]1C[C@@H]2CC[C@@H](C)[C@@](O)(O2)C(=O)C(=O)N2CCCC[C@H]2C(=O)O[C@H]([C@H](C)C[C@@H]2CC[C@@H](OCCO)[C@H](OC)C2)CC(=O)[C@H](C)/C=C(\\C)[C@@H](O)[C@@H](OC)C(=O)[C@H](C)C[C@H](C)/C=C/C=C/C=C/1C", "note": "[RAD001]", "values": [{"measurement": "total A-beta42", "setting": "A-beta42; flies dosed with 60 uM RAD001, heads of 13 day old flies", "result": "pronounced decrease"}, {"measurement": "reduction of the amount of soluble A-beta42", "setting": "A-beta42; heads of 13 day old flies fed 10-60 uM RAD001 every three days, normalized to total protein, vs placebo", "result": "up to 42%"}, {"measurement": "lifespan of flies expressing A-beta42", "setting": "[1]", "result": "partial rescue of lifespan"}, {"measurement": "locomotor defect (climbing assay)", "setting": "[2]", "result": "partially abrogated"}]}
